Laboratory results published in US8309353B2, “Method for induction of differentiation of ES cell” (Kumamoto University, priority 2007, dated 2012).

Legend:
mouse ES cells (SK7) = assay: Immunohistochemical analysis of AFP-, Pdx1/GFP- and Alb-expressing cells in mouse ES cells differentiated on M15 cells; type: cell-based; settings: for AFP expression, one factor added: one factor added d4 to d8, KSR, glucose 2,000 mg/L (FIG. 2B); for number of AFP-positive cells: factor added after d4, 10% KSR, 2,000 mg/L glucose (FIG. 3)
Description: A previously reported SK7 cell line (mouse ES cells) having a Pdx1 promoter-derived GFP reporter-introduced gene was used (International Publication WO2006/126574). The SK7 ES cells were maintained on mouse embryonic fibroblasts (MEF), using a Glasgow minimum essential medium (Invitrogen) supplemented with 1,000 units/mL leukemia inhibitory factor (Chemicon), 15% KSR (knockout serum replacement; Gibco), 1% fetal bovine serum (FBS; Hyclone), 100 μM nonessential amino acid (Invitrogen), 2 mM L-glutamine (Invitrogen), 1 mM sodium pyruvate (Invitrogen), 50 units/mL penicillin, 50 μg/mL streptomycin (Invitrogen) and 100 μM β-mercaptoethanol.
Thereafter, the ES cells (the number of cells: 5,000 and 20,000, respectively) were inoculated on a 24-well or 6-well plate (Nunc) that had previously been coated with the M15 cells. Subsequently, using DMEM containing 100 μM nonessential amino acid, 2 mM L-glutamine, 50 units/mL penicillin, 50 μg/mL streptomycin and 100 μM β-mercaptoethanol, the cells were cultured in a differentiation culture solution containing 10% FBS and 4,500 mg/L glucose from the initial day of culture (d0) to day 4 (d4), and after d4, the cells were then cultured in another culture solution containing 10% KSR and 2,000 mg/L glucose. Thus, the cells were cultured for a maximum of 30 days. In order to induce the […] endoderm, activin A (20 ng/mL) and bFGF (50 ng/mL) were added during the period from d0 to d4. Moreover, HGF (10 ng/mL) and dexamethasone (1 μM) were added during the period from d4 to d30. The culture solution was replaced with a fresh one containing a growth factor every two days. The details of such growth factor will be described at the end of the diferentiation section.
Recombinant human activin A (R&D Systems): 20 ng/mL; recombinant human bFGF (Peprotech): 50 ng/mL; recombinant human BMP4 (R&D Systems): 50 ng/mL; SU5402 (Mohammadi, et al., (1997). Science 276, 955-60.) (Calbiochem): 10 μM; recombinant mouse Noggin/Fc Chimera (R&D Systems): 100 ng/mL; recombinant human hepatic cell growth factor (HGF, Peprotech): 10 ng/mL; dexamethasone (Dex, Sigma): 1 μM; recombinant human oncostatin M (OSM, Sigma): 10 ng/mL.
For whole mount immunocytochemical analysis, ES cells were inoculated on 24-well Thennanox coverslips (Nunc). Using TCS-SP2 Spectral Confocal Scanning System (Leica), a confocal image was obtained. Using IX 71 Inverted (Olympus), a phase-contrast image was obtained. The following antibodies were used in detection: mouse anti-GFP (Roche), rabbit anti-α-fetoprotein (AFP, Biomeda), goat anti-albumin (Sigma), fluorescein isothiocyanate (FITC)-labeled Dolichos biflorus agglutinin (DBA) lectin (Sigma), rabbit anti-α-1-anti-trypsin (Sigma), rabbit anti-CYP3A2 (Biomol), rabbit anti-CYP7A1 (Santa Cruz), and mouse anti-Oct3/4 (Santa Cruz). As secondary antibodies, an Alexa568-labeled goat anti-rabbit antibody, donkey anti-goat antibody (Molecular Probes), and an Alexa488-labeled goat anti-mouse antibody, goat anti-rabbit antibody, and donkey anti-goat antibody (Molecular Probes) were used. The cells were subjected to counterstaining using DAPI (Roche). In order to quantify the number of the Afp-expressing cells of FIG. 3B, the region of an Afp-positive stained image was analyzed using Lumina Vision program (Mitani Corporation).

[1] = system: mouse ES cell-derived hepatic cells; assay: Albumin secretion analysis by ELISA; type: cell-based
Description: The medium was replaced with a fresh one, and 24 hours later, the conditioned medium was recovered. Using Lebis ELISA kit (Shibayagi), albumin secretion was analyzed.
It has been reported that OsM induces maturation of mouse fetal liver cells (Kamiya, A., Kinoshita, T. & Miyajima, A. (2001) Oncostatin M and hepatocyte growth factor induce hepatic maturation via distinct signaling pathways. FEBS Lett 492, 90-94). Thus, the influence of OsM on albumin secretion was analyzed by ELISA. The effect of OsM to enhance albumin secretion was not observed until […].

Molecule: HGF: recombinant human hepatic cell growth factor (Peprotech)
- AFP expression, one factor added (mouse ES cells (SK7)): promoted in the order of Dex>HGF>OsM

Molecule: bFGF: recombinant human bFGF (Peprotech)
- number of AFP-positive cells (mouse ES cells (SK7)): increased
- AFP-expressing cells when bFGF was added to Noggin (mouse ES cells (SK7); in the presence of Noggin, after d4, 10% KSR, 2,000 mg/L glucose (FIG. 3)): recovered

Molecule: Cc1c[nH]c(/C=C2\C(=O)Nc3ccccc32)c1CCC(=O)O [SU5402, reference compound]
- number of AFP-positive cells (mouse ES cells (SK7)): decreased

Molecule: Noggin
- number of AFP-positive cells (mouse ES cells (SK7)): almost all AFP-expressing cells disappeared

B1: OsM: recombinant human oncostatin M (Sigma) (protein, UniProt P13725 26-221, looked up)
Oncostatin-M: AAIGSCSKEYRVLLGQLQKQTDLMQDTSRLLDPYIRIQGLDVPKLREHCRERPGAFPSEETLRGLGRRGFLQTLNATLGCVLHRLADLEQRLPKAQDLERSGLNIEDLEKLQMARPNILGLRNNIYCMAQLLDNSDTAEPTKAGRGASQPPTPTPASDAFQRKLEGCRFLHGYHRFMHSVGRVFSKWGESPNRSRR
- increase of albumin secretion ([1]; d50 and d60, medium with OsM, Dex and HGF versus control medium with only Dex and HGF, 24 hours): 2 times
- effect to enhance albumin secretion ([1]; until c40, OsM added to Dex and HGF): not observed
- AFP expression, one factor added (mouse ES cells (SK7)): promoted in the order of Dex>HGF>OsM
